PMC4744570 (Pharmaceutical research, 2015)

Columns and labels:
[1] = Lung pharmacokinetic profiling in guinea pigs after intratracheal instillation; type: in vivo, guinea pigs (Cavia porcellus); conditions: male, guinea pig, 1.6 mg
[2] = parent drug; cited from earlier work
[3] = tested on: P. aeruginosa; conditions: cited from earlier work

Work on C[C@@H](O)[C@H]1C(=O)N2C(C(=O)O)=C(S[C@@H]3CN[C@H](C(=O)N(C)C)C3)[C@H](C)[C@H]12 [meropenem] yielded a Cmax ([1]; inhaled or intranasal) greater than 70000 ng/mL, a concentration at 3 h ([1]; other: intratracheal) of less than 1000 ng/mL and a concentration at 9 h ([1]; other: intratracheal) of 12 ng/mL. For the same compound, the concentration at 12 h ([1]; other: intratracheal) was 10 ng/mL, the “solubility (S) in water” value [2] was greater than 50 mg/mL and the MIC90 [3] was 8,000 ng/mL.
